Tests used:
HT-22 cells [1] = test: Intracellular ROS, H2DCFDA oxidation; type: cell-based, mouse; details: 2 μM Aβ(1-42), 10 μM H2DCFDA, p < 0.05
Procedure: For the detection of intracellular ROS levels, we measured the oxidation of H2DCFDA to the fluorescent compound dichlorofluorescein, as previously described, with minor modifications. […] Then, 10 μM of H2DCFDA was added to the medium and the fluorescence intensity was recorded every 15 s for 10 min with an excitation filter of 470 nm, and 510 nm dichroic mirror/520 nm emission filter, using an exposure time of 0.2 s.

STIM1 = target: T1, STIM1 (Mus musculus, UniProt P70302); test: Co-immunoprecipitation of STIM1 with anti-Aβ antibody from HT-22 lysates, Western blot; type: binding; details: 250 nM Aβ(1-42), HT-22 cell lysates
T1 construct: endogenous in cells; host or cells: HT-22 cell lysate
Procedure: The HT-22 cells were lysed in a buffer: 25 mM of Tris(hydroxymethyl)aminomethane–HCl, pH 7.4, 150 mM of NaCl, 5 mM of ethylenediaminetetraacetic acid, 50 mM of NaF, 5 mM of NaVO3, 0.25% of Triton X-100, and 5 mM of methyl-β-cyclodextrin, supplemented with 1× […]^TM protease inhibitor cocktail. After cell centrifugation at 2000× g for 2 min at 4 °C, the supernatant was collected and supplemented with 50% glycerol. Bradford’s method was used to measure the protein concentration in HT22 lysates using the bovine serum albumin as the standard. The co-immunoprecipitation was carried out using the protein A/G PLUS-Agarose, following the instructions described by the manufacturer in the technical data sheet. […] Then, 10 μg of mouse anti-β-amyloid antibody was added to the Eppendorf tube and incubated for 1 h at 4 °C with continuous gentle shaking. Afterward, 50 μL of protein A/G PLUS-Agarose was added and incubated overnight at 4 °C with continuous shaking. […] The agarose beads were precipitated by centrifugation at 2500× g for 5 min at 4 °C in a refrigerated Eppendorf microcentrifuge. […] A centrifugation step (2500× g, 5 min at 4 °C) was performed in a refrigerated Eppendorf microcentrifuge after each washing step. […]

[2] = tested on: mature cerebellar granule neurons; details: 2 h of incubation; cited from earlier work
PDI = tested on: PDI; set-up: method as in earlier work; details: up to 200 nM Aβ(1-42), HT-22 cell lysates, isomerase assay of ref 67; cited from earlier work
HT-22 cells [3] = test: Internalization of Aβ(1-42) in living HT-22 cells (red fluorescence of Aβ(1-42)*555, calibration curve); type: cell-based, mouse; details: 2 μM Aβ(1-42) total (unlabeled plus Aβ(1-42)*555) in culture medium, 37 °C, 5% CO2, red fluorescence microscopy, calibration with Aβ(1-42)*555 in fixed permeabilized cells, mean ± SEM
Procedure: Then, the cells were washed once with 1 mL of MLocke’s K5, and the 35 mm dishes were placed in the holder of the microscope at 37 °C for RF imaging. The fluorescence microscopy images of the HT-22 cells were acquired with a Hamamatsu Orca-R^2 CCD camera (binning mode 2 × 2) camera (Hamamatsu, Hamamatsu-city, Japan) attached to a Nikon Diaphot 300 epifluorescence microscope (Tokyo, Japan) with an NCF Plan ELWD 40× objective, using an excitation filter of 556 nm and a dichroic mirror of 580 nm with an emission filter of 590 nm, and a 0.06 s exposure time. The ROI tool of the HCImage software was used for the quantitative analysis. The average fluorescence intensity readings per pixel in HT-22 cells were taken from several fields for a total number of 80 cells and after the subtraction of the autofluorescence. […]
Supplementary Figure S1. Calibration data were obtained with […]
medium of fixed and permeabilized HT-22 cells to calculate the internalized concentration of Aβ(1–42) in living HT-22 cells. The […]
monomers/L. The results shown are the mean ± SEM of
(also on this page, place not known: Fluorescence Intensity per pixel (A.U.))

HT-22 cells [4] = test: Resting cytosolic Ca2+ concentration, Fura2/Fluo3-loaded HT-22 cells; type: cell-based, mouse; details: 2 μM Aβ(1-42), control 75 ± 8 nM, mean ± SEM of triplicates, n > 60 cells
Procedure: Cytosolic Ca^2+ imaging was assessed in the HT-22 cell culture with the fluorescent probe Fluo3-AM. […] The untread cells were regarded as the controls. […] Then, the cells were washed once with 1 mL of MLocke’s K5 buffer, and the 35 mm culture dishes were placed in the thermostatic plate at 37 °C (Warner Instrument Co., Hamden, CT, USA) of the Nikon Diaphot 300 inverted epifluorescence microscope (Tokyo, Japan) with an NCF Plan ELWD 40× objective (the pixel size of the images shown in this work was 0.2 μm). The images of the Fluo3-loaded cells were acquired with the Hamamatsu Orca-R^2 CCD camera (binning mode 2 × 2) with an excitation filter of 470 nm, a dichroic mirror of 510 nm with an emission filter of 520 nm, and a 0.3 s exposure time. […] The depletion of the Ca^2+ stores was triggered by adding 2 μM of the SERCA pump blocker Tg plus ethylene glycol tetraacetic acid (1 mM), in a Ca^2+-free Mlocke’s K5 buffer. Then, the SOCE was measured after the addition of 3 mM of CaCl2 to the Tg-containing medium. […] The activity of the RyR Ca^2+-leak channels was evaluated by incubation with 100 μM of the RyR antagonist ryanodine for 1 h in the HT-22 culture media. In all experiments with antagonists, we performed the respective dimethylsulfoxide vehicle controls. […]

[5] = tested on: store-operated calcium entry (SOCE) in HT-22 cells; test: SOCE Ca2+ imaging in Fluo3-loaded HT-22 cells (Tg-induced store release, then Ca2+ entry); type: cell-based, mouse
Procedure: (§1) Cytosolic Ca^2+ imaging was assessed in the HT-22 cell culture with the fluorescent probe Fluo3-AM. […] The untread cells were regarded as the controls. […] Then, the cells were washed once with 1 mL of MLocke’s K5 buffer, and the 35 mm culture dishes were placed in the thermostatic plate at 37 °C (Warner Instrument Co., Hamden, CT, USA) of the Nikon Diaphot 300 inverted epifluorescence microscope (Tokyo, Japan) with an NCF Plan ELWD 40× objective (the pixel size of the images shown in this work was 0.2 μm). The images of the Fluo3-loaded cells were acquired with the Hamamatsu Orca-R^2 CCD camera (binning mode 2 × 2) with an excitation filter of 470 nm, a dichroic mirror of 510 nm with an emission filter of 520 nm, and a 0.3 s exposure time. […] The depletion of the Ca^2+ stores was triggered by adding 2 μM of the SERCA pump blocker Tg plus ethylene glycol tetraacetic acid (1 mM), in a Ca^2+-free Mlocke’s K5 buffer. Then, the SOCE was measured after the addition of 3 mM of CaCl2 to the Tg-containing medium. […] The activity of the RyR Ca^2+-leak channels was evaluated by incubation with 100 μM of the RyR antagonist ryanodine for 1 h in the HT-22 culture media. In all experiments with antagonists, we performed the respective dimethylsulfoxide vehicle controls.

HT-22 cells [6] = test: Cellular GSH level, monochlorobimane fluorescence; type: cell-based, mouse; details: 2 μM Aβ(1-42), 2 h or 5 h; 10 μM MCB
Procedure: The cellular GSH level was monitored with MCB using fluorescence microscopy, as described in our previous work. Images were acquired with a Nikon Diaphot 300 epifluorescence microscope, with an excitation filter of 380 nm.
(A) Representative microscopy images
(B) Means of the average fluorescence intensity
Supplementary Figure S5. GSH levels are not altered after 2 h […]
37 ᵒC were washed once with MLocke’s K5 buffer and the plates were placed in the holder of the fluorescence microscope (37 ᵒC) for cell imaging before and after the addition of 10 μM MCB as described in the Material and Methods section.
Panel A: representative bright field and blue fluorescence images
(GS-MCB) acquired 2 min after MCB addition of untreated cells […]
exposure was 0.7 s and the scale bar inserted = 20 μm. Panel B: means of fluorescence intensity per pixel of HT-22 cells after 2 min of incubation with MCB (10 μM). The results shown are the […]
in GSH levels between untreated cells (control) and cells treated […]
(also on this page, place not known: 0 100 200 300 400 Fluorescenece (Intensity/pixel) µM Aβ(1-42) µM Aβ(1-42) n.s. n.s. Bright Blue Fluorescence Control 2h IJMS-1941218 field 2 2 of MCB 2 2 h 5 h) […]

HT-22 cells [7] = test: Mitochondrial membrane potential, TMRE assay; type: cell-based, mouse
Procedure: Mitochondrial depolarization was monitored with the fluorescent dye TMRE, as previously described, with small changes. […] Then, the HT-22 culture dishes were placed in the thermostatic plate at 37 °C of the inverted epifluorescence microscope and the fluorescence kinetic was recorded at 556 nm excitation filter and a dichroic mirror of 580 nm with an emission filter of 590 nm and a time of exposure 0.01 s. To assess the level of the mitochondrial membrane depolarization, 5 μM of a potent mitochondrial oxidative phosphorylation uncoupler FCCP was added to the medium. The region of interest (ROI) tool of the HCImage software was used for the quantitative analysis. The average fluorescence intensity readings per pixel in the HT-22 cells were taken from several fields for a total number of 80 cells.

RyR = target: T2, RyR (Mus musculus, UniProt E9Q401); test: Tg-induced Ca2+ release from stores in Fluo3-loaded HT-22 cells with the RyR antagonist ryanodine; type: cell-based
T2 construct: incubation with 100 μM of the RyR antagonist ryanodine for 1 h in the HT-22 culture media; endogenous in cells; host or cells: HT-22 (mouse hippocampal cell line)
Procedure: as §1

HT22 cells = test: Intracellular calcium response of Fluo3-loaded HT22 cells to cholinergic agonists; type: cell-based, mouse; details: for intracellular calcium response in the majority of the cells: Fluo3-loaded HT22 cells
Procedure: as §1
Supplementary Figure S8. Representative kinetic traces of the average fluorescence intensity of Fluo3-loaded
HT22 cells (Ft/F0) recorded over time every 15 s intervals
Ca2+ entry mediated by cholinergic receptors. The data shown are the means ±SEM of n =16 cells.
(1 picture or pasted object on this page, not shown here)

T2 sequence (E9Q401 whole entry): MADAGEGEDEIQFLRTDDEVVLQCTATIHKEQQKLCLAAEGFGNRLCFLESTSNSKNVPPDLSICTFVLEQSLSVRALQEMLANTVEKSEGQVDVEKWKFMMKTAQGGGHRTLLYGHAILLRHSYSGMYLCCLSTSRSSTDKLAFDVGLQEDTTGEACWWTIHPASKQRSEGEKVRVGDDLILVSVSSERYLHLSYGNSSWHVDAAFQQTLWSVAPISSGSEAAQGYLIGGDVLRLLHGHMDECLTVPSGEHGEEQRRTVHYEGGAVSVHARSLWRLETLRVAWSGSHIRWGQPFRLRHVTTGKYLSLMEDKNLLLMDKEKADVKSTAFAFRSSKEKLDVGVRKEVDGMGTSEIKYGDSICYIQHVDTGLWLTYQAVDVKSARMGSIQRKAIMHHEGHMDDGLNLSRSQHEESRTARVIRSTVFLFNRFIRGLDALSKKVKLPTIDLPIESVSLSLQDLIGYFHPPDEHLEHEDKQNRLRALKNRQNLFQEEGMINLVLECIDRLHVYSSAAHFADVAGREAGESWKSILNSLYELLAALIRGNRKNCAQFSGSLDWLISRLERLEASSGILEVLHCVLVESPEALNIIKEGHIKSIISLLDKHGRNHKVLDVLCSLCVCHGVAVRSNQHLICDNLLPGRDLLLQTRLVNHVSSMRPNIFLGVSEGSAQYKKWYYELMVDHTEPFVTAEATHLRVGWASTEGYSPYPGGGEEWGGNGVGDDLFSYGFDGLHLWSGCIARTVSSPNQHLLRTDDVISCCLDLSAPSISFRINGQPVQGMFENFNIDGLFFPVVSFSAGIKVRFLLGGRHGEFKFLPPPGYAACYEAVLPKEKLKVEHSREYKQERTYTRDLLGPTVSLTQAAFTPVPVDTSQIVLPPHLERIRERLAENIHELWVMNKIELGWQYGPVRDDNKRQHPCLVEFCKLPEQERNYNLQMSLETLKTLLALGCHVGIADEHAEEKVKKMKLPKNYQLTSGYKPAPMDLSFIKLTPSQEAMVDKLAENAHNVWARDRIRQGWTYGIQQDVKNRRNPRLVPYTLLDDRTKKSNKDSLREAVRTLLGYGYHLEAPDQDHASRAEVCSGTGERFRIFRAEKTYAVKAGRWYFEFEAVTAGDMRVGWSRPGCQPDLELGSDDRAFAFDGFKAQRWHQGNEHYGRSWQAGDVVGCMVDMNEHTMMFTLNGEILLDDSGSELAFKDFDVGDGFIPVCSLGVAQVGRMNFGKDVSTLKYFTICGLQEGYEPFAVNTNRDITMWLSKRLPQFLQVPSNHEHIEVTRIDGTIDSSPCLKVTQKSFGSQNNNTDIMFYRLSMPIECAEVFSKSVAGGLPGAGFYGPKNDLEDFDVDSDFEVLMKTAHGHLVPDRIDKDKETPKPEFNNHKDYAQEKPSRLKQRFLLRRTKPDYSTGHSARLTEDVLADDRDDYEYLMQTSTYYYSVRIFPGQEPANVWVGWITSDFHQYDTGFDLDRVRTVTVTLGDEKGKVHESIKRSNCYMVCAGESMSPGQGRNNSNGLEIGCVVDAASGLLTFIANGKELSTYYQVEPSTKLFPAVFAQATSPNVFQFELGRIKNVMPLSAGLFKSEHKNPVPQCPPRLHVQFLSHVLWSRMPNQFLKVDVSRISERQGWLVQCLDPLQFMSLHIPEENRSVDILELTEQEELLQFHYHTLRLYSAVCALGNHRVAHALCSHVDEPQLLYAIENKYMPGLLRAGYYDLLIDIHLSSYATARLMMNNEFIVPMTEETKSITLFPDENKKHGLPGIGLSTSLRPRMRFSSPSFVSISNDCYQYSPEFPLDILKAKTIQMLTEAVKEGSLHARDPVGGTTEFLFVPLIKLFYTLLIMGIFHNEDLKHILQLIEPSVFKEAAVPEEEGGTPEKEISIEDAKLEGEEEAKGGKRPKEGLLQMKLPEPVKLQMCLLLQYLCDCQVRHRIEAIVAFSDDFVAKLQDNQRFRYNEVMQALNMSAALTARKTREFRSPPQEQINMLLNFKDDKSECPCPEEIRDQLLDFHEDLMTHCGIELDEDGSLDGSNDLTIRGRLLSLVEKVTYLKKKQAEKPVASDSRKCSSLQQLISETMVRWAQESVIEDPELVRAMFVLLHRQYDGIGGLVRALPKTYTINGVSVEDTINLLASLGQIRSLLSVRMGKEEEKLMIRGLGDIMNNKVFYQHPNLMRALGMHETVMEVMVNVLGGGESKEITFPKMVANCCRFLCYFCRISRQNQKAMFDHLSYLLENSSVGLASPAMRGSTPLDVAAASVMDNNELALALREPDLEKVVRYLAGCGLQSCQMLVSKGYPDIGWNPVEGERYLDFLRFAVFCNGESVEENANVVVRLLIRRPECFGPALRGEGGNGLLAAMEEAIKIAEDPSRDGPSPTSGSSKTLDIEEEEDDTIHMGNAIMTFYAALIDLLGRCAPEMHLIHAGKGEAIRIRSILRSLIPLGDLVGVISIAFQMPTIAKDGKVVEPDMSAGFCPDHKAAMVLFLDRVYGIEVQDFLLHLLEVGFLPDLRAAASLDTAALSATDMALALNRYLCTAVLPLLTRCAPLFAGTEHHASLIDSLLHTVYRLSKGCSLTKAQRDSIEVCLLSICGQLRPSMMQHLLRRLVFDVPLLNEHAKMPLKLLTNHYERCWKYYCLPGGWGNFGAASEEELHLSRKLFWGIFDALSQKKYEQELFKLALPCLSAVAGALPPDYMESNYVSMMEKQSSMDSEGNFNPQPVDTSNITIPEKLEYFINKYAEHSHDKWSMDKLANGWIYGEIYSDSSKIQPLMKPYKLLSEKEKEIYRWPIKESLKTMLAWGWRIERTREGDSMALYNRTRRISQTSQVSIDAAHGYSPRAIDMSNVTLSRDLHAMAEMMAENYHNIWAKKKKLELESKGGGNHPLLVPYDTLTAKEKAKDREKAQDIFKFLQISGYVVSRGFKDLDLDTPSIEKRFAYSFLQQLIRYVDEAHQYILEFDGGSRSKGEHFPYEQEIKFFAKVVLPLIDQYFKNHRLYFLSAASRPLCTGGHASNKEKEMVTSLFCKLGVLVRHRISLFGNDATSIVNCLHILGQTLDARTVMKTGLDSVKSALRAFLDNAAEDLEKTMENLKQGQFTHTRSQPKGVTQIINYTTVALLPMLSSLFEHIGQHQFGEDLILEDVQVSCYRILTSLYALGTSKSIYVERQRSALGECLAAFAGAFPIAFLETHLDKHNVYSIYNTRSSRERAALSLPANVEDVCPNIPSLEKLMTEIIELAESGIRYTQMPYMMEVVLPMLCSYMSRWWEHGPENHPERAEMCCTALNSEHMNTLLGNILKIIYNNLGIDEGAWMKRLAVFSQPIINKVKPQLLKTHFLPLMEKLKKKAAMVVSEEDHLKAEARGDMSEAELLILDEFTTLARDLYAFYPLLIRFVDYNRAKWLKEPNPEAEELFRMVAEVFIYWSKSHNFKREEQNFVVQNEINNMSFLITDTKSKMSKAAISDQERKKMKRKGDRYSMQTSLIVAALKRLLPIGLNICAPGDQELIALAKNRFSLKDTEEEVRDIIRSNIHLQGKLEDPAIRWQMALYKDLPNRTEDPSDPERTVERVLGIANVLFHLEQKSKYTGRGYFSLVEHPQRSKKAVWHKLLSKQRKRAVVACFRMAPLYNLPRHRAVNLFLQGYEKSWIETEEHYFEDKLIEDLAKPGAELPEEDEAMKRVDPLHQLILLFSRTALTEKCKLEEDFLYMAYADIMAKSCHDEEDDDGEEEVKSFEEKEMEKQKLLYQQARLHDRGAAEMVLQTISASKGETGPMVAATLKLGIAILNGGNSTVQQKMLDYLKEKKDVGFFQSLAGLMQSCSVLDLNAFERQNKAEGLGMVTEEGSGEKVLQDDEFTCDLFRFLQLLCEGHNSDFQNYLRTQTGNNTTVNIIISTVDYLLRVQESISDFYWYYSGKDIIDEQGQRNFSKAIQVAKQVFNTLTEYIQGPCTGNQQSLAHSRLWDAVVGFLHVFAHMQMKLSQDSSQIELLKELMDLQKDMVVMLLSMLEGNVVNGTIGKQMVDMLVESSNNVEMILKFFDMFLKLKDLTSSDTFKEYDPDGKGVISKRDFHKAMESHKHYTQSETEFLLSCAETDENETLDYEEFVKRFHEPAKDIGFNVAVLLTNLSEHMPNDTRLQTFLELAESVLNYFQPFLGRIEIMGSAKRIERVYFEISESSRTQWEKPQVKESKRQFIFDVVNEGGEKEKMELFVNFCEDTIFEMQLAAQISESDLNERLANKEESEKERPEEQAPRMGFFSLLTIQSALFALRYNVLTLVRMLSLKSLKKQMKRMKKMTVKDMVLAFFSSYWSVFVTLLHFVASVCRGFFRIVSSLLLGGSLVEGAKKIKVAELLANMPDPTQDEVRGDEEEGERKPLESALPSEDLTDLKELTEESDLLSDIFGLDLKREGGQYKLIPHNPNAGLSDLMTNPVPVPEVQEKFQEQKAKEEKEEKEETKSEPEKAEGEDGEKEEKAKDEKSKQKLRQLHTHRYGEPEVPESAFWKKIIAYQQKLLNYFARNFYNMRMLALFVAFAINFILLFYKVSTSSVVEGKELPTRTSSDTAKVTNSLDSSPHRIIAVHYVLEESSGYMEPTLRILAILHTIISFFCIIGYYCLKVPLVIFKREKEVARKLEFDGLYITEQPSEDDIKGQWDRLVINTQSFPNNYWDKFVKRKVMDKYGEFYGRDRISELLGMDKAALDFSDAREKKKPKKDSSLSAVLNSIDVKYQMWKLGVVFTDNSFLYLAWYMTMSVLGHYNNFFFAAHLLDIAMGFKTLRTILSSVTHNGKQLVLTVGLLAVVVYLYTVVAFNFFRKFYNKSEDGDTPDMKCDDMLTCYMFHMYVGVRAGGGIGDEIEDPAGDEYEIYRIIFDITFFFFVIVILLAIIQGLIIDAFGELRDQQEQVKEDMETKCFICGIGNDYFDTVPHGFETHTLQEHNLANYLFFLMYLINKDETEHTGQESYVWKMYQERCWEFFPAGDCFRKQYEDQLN

In the case of “Aβ(1-42): Unlabeled amyloid β peptide (1-42), synthesized and supplied by StabVida”, the “increase in ROS production compared with untreated cells” value (HT-22 cells [1]; 2 h) is reported as 1.3 fold, the “increase in ROS production compared with untreated cells” value (HT-22 cells [1]; 5 h) is reported as 1.7 fold and the “STIM1 co-immunoprecipitation with anti-Aβ(1-42) antibody” value (STIM1) is reported as “formation of STIM1-Aβ complexes”. For the same molecule, the “internalized Aβ(1-42)” value [2] was “about 193 ± 21 nM”, the “inhibition of PDI activity” value (PDI) was “did not significantly inhibit” and the “concentration of internalized Aβ(1-42) monomers” value (HT-22 cells [3]; 2 h) was 62 ± 11 nM. For the same molecule, the “concentration of internalized Aβ(1-42) monomers” value (HT-22 cells [3]; 5 h) was 135 ± 15 nM, the “intracellular Ca2+ concentration [Ca2+]i” value (HT-22 cells [4]; 2 h) was 81 ± 9 nM and the “intracellular Ca2+ concentration [Ca2+]i” value (HT-22 cells [4]; 5 h) was 82 ± 8 nM. The “inhibition of Ca2+ released from stores after Tg addition” value ([5]; 2 μM Aβ(1-42) 2 h plus 3 μM BTP2 15 min, mean ± SEM) was 42 ± 6%, the “inhibition of Ca2+ release from the stores after Tg addition, compared with control” value ([5]; 2 μM Aβ(1-42), 2 h, 37 °C, 2 μM Tg, Ca2+-free medium, ΔF/F0, mean ± SEM, n > 80 cells) was 37 ± 7% and the “inhibition of Ca2+ entry through the plasma membrane after Ca2+ addition, compared with control” value ([5]; 2 μM Aβ(1-42), 2 h, 37 °C, 3 mM Ca2+ after Tg, ΔF/F0, mean ± SEM, n > 80 cells) was 32 ± 6%. The “SOCE induced by Aβ(1-42) in the absence of Tg” value ([5]; HT-22 cells, no thapsigargin) was “did not detect”, the “GSH levels versus untreated cells” value (HT-22 cells [6]) was “not significantly different” and the “mitochondria membrane potential (TMRE ΔF/F0 before/after FCCP) versus control” value (HT-22 cells [7]; 2 μM Aβ(1-42), 2 h or 5 h, p > 0.05) was “not altering the mitochondria membrane potential”. The “Tg-induced Ca2+ released from the stores, compared with cells treated only with Aβ(1-42)” value (RyR; 2 μM Aβ(1-42) 2 h plus 100 μM ryanodine) was “three-fold higher”.

In the case of Cc1nnsc1C(=O)Nc1ccc(-n2nc(C(F)(F)F)cc2C(F)(F)F)cc1 [BTP2, N-[4-[3,5-bis(trifluoromethyl)pyrazol-1-yl]phenyl]-4-methylthiadiazole-5-carboxamide], the “Ca2+ released from the stores after addition of Tg versus control” value ([5]; 3 μM BTP2, 15 min, control HT-22 cells) is reported as “no significative difference” and the “decrease of Ca2+ entry through the plasma membrane relative to control without BTP2” value ([5]; 3 μM BTP2, 15 min preincubation, 37 °C, control HT-22 cells, mean ± SEM, n > 80 cells) is reported as 71 ± 8%.

For ryanodine, the “increase of ER Ca2+ content (Tg-induced Ca2+ release from stores) versus control without ryanodine” value (RyR; 100 μM ryanodine, 1 h, 37 °C, control HT-22 cells, 2 μM Tg) was “about 2.2 fold”.

For N#CC(C#N)=NNc1ccc(OC(F)(F)F)cc1 [FCCP, trifluoromethoxy carbonylcyanide phenylhydrazone], the “mitochondria membrane potential after addition (positive control of depolarization)” value (HT-22 cells [7]; 5 μM FCCP, TMRE-loaded HT-22 cells) was “large decrease”.

With C[N+](C)(C)CCOC(N)=O [carbachol] the “intracellular calcium response in the majority of the cells” value (HT22 cells) was “almost negligible”.

In the case of CC(=O)OCC[N+](C)(C)C [acetylcholine], the “fraction of HT22 cells showing intracellular calcium concentration peaks” value (HT22 cells; 100 μM acetylcholine, Fluo3-loaded cells) is reported as “less than 25%” and the “intracellular calcium response in the majority of the cells” value (HT22 cells) is reported as “almost negligible”.

Reference: paper PMC9604325 (International Journal of Molecular Sciences, 2022)
